In patent publication US6482990B1, “Prostaglandin E analogues” (Taisho Pharmaceutical Co., Ltd., priority 1999, dated 2002):

Tested on: human vascular smooth muscle cells
Experiment: DNA synthesis inhibition activity (3H-thymidine intake) in human vascular smooth muscle cells
Assay type: cell-based
Settings: for IC50: vascular cells derived from normal human aorta, 24 hours culture with 3H-thymidine, test compound as ethanol solution, compared with vehicle-treated control; for inhibiting activity on the growth of human vascular smooth muscle cells: conclusion in words from Table 2
Experimental: Determination of DNA synthesis inhibition activity of PGE1 analogs to human vascular smooth muscle cells
On a 24 well-plate (manufactured by Corning Co.), 1×10^4 cells/well of quintic culture cells of vascular cells derived from normal human aorta (produced by Kurabo Co.) were inoculated and cultured for 2 days. The medium was exchanged from the growth medium (SG2: produced by Kurabo Co.) to the basal medium (SB2: produced by Kurabo Co.), and cultured for 24 hours, to which was added the growth medium (SG2) containing an ethanol solution of the test compound. ^3H-thymidine (produced by Daiichi Chemicals Co.) was added in an amount of 0.01 mci/well and, after culturing for 24 hours, the cultured supernatant was removed by suction, followed by washing with a phosphate buffer solution (PBS).
5% Trichloroacetic acid (TCA) was added and, after allowing to stand at 4° C. for 20 minutes, the mixture was washed once with TCA. The mixture was washed with PBS, and dissolved in 0.5 N KOH. Intake of ^3H-thymidine was determined using 20 μl of KOH dissolving the cells which incorporated ^3H-thymidine in the nucleus by means of a liquid scintillation counter (manufactured by Hewlett-Packard Co.).

Structure (SMILES)	IC50 [nM]	inhibiting activity on the growth of human vascular smooth muscle cells
COC(=O)/C=C/CCCCC1C(=O)CC(O)C1C#CC(O)CCc1ccccc1 (centres unmarked) [Comparative Compound, (2E)-18,19,20-Trinor-17-phenyl-2,3,13,14-tetradehydro-PGE1 methyl ester, reference compound]	4360	
Cc1ccc(CCCC2C(=O)CC(O)C2C=CC(O)CCc2ccccc2)cc1 (centres unmarked) [Compound 29, 2-Decarboxy-2,3,4,18,19,20-hexanor-5-(4-methylphenyl)-17-phenyl-PGE1]	730	high inhibiting activity
O=C1CC(O)C(C=CC(O)CCc2ccccc2)C1CCCc1ccc(C(F)(F)F)cc1 (centres unmarked) [Compound 18, 2-Decarboxy-2,3,4,18,19,20-hexanor-5-(4-trifluoromethylphenyl)-17-phenyl-PGE1]	660	high inhibiting activity
